Measurements taken from patent US11071727B2, “Therapeutic targeting of proteolytic cleavage of the mixed lineage leukemia gene product (MLL1) by taspase1 using kinase inhibitors” (Northwestern University, priority 2018, dated 2021).

How the values were obtained:
MLL1 = experiment: Western blot of full-length MLL1 protein levels in cells treated with CKII inhibitors; assay type: cell-based, human; settings: 30 hours
Experimental: (§1) FIG. 5. CKII inhibitors selectively increase full-length MLL1 protein levels by decreasing the phosphorylation of MLL1 near the cleavage sites. (A) Conservation of the sequences flanking MLL1-CS2, MLL2 and TFIIA cleavage sites and phosphorylated serine and threonine residues after the cleavage sites (highlighted in red). (B) and (C) 293T cells were transfected with vector control (VT), WT, AA or DD reporter constructs of MLL1-p75 or TFIIA. Western blot was performed with anti-Flag antibody for MLL1 (p75: FL, p47: cleaved) or TFIIA (p54: FL, p47: cleaved). (D) and (E) 293T cells were transfected with WT or AA reporter constructs of MLL1-p75 or TFIIA in the presence or absence of HA-taspase1. Western blot was performed with anti-Flag antibody for MLL1 or TFIIA, or anti-HA antibody for taspase1. (F) 293T cells were infected with shRNAs against CKIIα or CKIIα′. Western blot was performed with anti-MLL1C antibody for MLL1 full-length protein levels, and CKIIα or CKIIα′ for knockdown efficiency. (G) 293T cells were treated with DMSO or 10 μM CX-4945 for 30 hours. Cells were harvested and lysed for Western blot against MLL1, MLL2 or TFIIA using β-tubulin as the loading control. (H) and (I) 293T taspase1 KO cells were pre-treated with CX-4945 (3 μM) or TTP22 (10 μM) for 30 hours. Whole cell lysates from the two conditions were incubated with increasing concentrations of his-taspase1 and subject to in vitro taspase1 assay.
FIG. 13. CKII inhibitors increase full-length MLL1 protein levels. (A) Prediction of kinases that phosphorylate MLL1 near the taspase1 cleavage site. (B) Structure of the CKII inhibitors CX-4945, TTP22, DMAT and TTB. (C) Comparison of the IC50 and molecular weight of the four CKII inhibitors. […] Quantification of the band intensities was performed by ImageJ software. (E) and (F) in vitro taspase1 cleavage assay. Taspase1 KO cell lysates were incubated with recombinant his-tagged taspase1 (0, 1, 10, 100 or 1000 ng) and subject to in vitro taspase1 cleavage assay. Cleavage efficiency was shown as the blotting for MLL1 and TFIIA using Hsp90 as the loading control.
Cell culture. […]

MLL2, TFIIA = experiment: Western blot of MLL2 and TFIIA cleavage in 293T cells treated with CX-4945; assay type: cell-based, human; settings: 10 μM, 30 hours
Experimental: as §1, with “Whole cell lysates from the two conditions were incubated with increasing concentrations of his-taspase1 and subject to in vitro taspase1 assay.” left out

MOLM13 cells = experiment: MOLM13 human leukemia xenograft mouse model; assay type: in vivo
Experimental: FIG. 7. CKII inhibition delays the leukemia progression and improves survival of MLL-AF9 mice and MOLM13 human leukemia mice. (A) Timeline of the MLL-AF9 leukemia mouse model and CKII inhibitor treatment. Drug treatments were started at day 10 after transplantation. (B) Kaplan-Meier survival curves of secondary transplanted C57BL/6 mice after vehicle and CX-4945 treatment at day 10. Vehicle or CX-4945 (50 mg/kg or 75 mg/kg) were administered twice daily by oral gavage for a total of twenty treatments. Leukemia was confirmed at the endpoint for each transplant mouse. The number (n) indicates the number of mice in each group. The p values were calculated using the log rank test. (C) Timeline of the MOLM13 human leukemia xenograft mice. Drug treatments were started at day 5 after transplantation. (D) Kaplan-Meier survival curves of NSGS mice after vehicle and CX-4945 treatment. Vehicle or CX-4945 (50 mg/kg) were administered twice daily by oral gavage for a total of twenty treatments. Leukemia was confirmed at the endpoint for each transplant mouse by flow cytometry, H&E staining and histology analysis. […] The p value was calculated using the log rank test. […]
MLL Murine Xenograft Transplantation and Treatment. […] Mice were monitored for illness including signs of lethargy, ruffled coat, and/or hind limb paralysis at which time mice were sacrificed for analysis. […]

With `O=C(O)c1ccc2c(c1)nc(Nc1cccc(Cl)c1)c1ccncc12` [CX-4945, 5-(3-chlorophenylamino)benzo[c][2,6]naphthyridine-8-carboxylic acid] the “conversion from cleaved MLL1 to full-length MLL1” value (MLL1; 293T cells, 10 μM) was “increased the conversion from cleaved MLL1 to full-length MLL1”, the “MLL1 full-length protein levels” value (MLL1; 293T, MCF7 and HCT116 cells, 0-20 μM, Western blot with MLL1C antibody) was “dose-dependent increase of MLL1 full-length protein levels” and the “cleavage of MLL2 or TFIIA” value (MLL2, TFIIA) was “without affecting the cleavage of MLL2 or TFIIA”. The “weight of the mice” value (MOLM13 cells; MOLM13 human leukemia xenograft mouse model, compared with vehicle control group) was “did not affect the weight of the mice” and the leukemia free survival (MOLM13 cells; NSGS mice, 50 mg/kg twice daily by oral gavage for ten days, from day 5) was “significantly lengthened”.
